US4001323A, “Water-soluble, non-ionizing hydroxy-containing amide derivatives of 2,4,6-triiodo-isophthalic acid” (Savac AG, priority 1974, dated 1977)
Values after ≈ are worked out from the molar mass of the structure shown.

Columns and labels:
[1] = Solubility in water (Table I); type: physicochemical; conditions: for solubility: water
Experimental: The following Examples are further illustrative of this invention. All solubility values are in grams per 100 ml unless stated otherwise.

mice [2] = test: Acute toxicity LD50 in mice (i.v., i.p., i.ce.); type: in vivo; conditions: for Toxicity, LD50, i.ce.: intracerebral, 5 ml/kg, concentration varied, evaluated after 48 hours; for Toxicity, LD50, i.p.: intraperitoneal; for Toxicity, LD50, i.p. / Toxicity, LD50, i.v.: 400 mg I per ml, evaluated after 12 days; for Toxicity, LD50, i.v.: intravenous, 20 mg I per kg and minute
Experimental: (§1) The solutions injected for i.v., i.p., i.ci., and i.ca. toxicity tests contained 400 mg I per ml. The rate of injection was 20 mg I per kg and minute for i.v. and i.ca. toxicity. In the tests for i.ce. toxicity, the injected volume was 5ml/kg, and the concentration was varied. Results of i.v. and i.p. toxicity tests were evaluated after 12 days, results of i.ce. and i.ca. toxicity tests after 48 hours.

rabbits = test: Acute intracisternal toxicity LD50 in rabbits; type: in vivo; conditions: 400 mg I per ml
Experimental: as §1

rats = test: Acute intracarotideal toxicity LD50 in rats; type: in vivo; conditions: 400 mg I per ml, 20 mg I per kg and minute, evaluated after 48 hours
Experimental: as §1

[3] = Viscosity of aqueous solutions; type: physicochemical
Experimental: Aqueous solutions of Compound A containing 300 and 400 mg iodine respectively had viscosities of 8.95 and 40.6 c.p. at 20°, 4.70 and 16.1 c.p. at 37° C. A low viscosity facilitates injection.

[4] = Thermal stability of aqueous solutions; type: physicochemical; design: key to Appearance, initial / Appearance, 30 min. / Appearance, 15 hrs.: (1): Clear solution; (2): Colorless; (3): Slightly colored; (4): Brown suspension, black sediment; conditions: 400 mg I per ml, under nitrogen, 120° C
Experimental: For a comparison of thermal stability, aqueous solutions of Compounds A and H containing 400 mg I per ml where heated under nitrogen at 120° C. pH, iodide ion concentration and appearance were determined initially, after 30 minutes and after 15 hours.

[5] = Solubility in organic solvents; type: physicochemical
Experimental: (§2) 10 Ml of a solution containing 10 g Compound A was stored several days at 4° C, whereby only 2.3 g of the compound was precipitated.

[6] = Storage / supersaturation stability of aqueous solutions; type: physicochemical
Experimental: as §2
The residue was recrystallized from aqueous methanol and consisted of 11.6 g DL-5-α,β-dihydroxypropionylamino-2,4,6-triiodo-isophtalic acid di-(1,3-dihydroxyisopropylamide) (62.5% yield). It sintered and melted at 210° - 230° C and decomposed at 260° C. It gave an Rf value of 0.15 by thin layer chromatography on silica gel with chloroform/methanol/aqueous 25% ammonia 6:3:1. It was identified by elementary analysis for carbon and iodine which yielded values of 25.70% C and 48.29% I against 25.74% and 48.00% respectively calculated for C17 H22 I3 N3 O9.

[7] = cited from earlier work
mice [8] = conditions: intravenous, literature; cited from earlier work
[9] = in vivo; cited from earlier work
[10] = 20° C, read-out: Solubility in water at 20° C
[11] = 40° C, read-out: Solubility in water at 40° C
[12] = 60° C, read-out: Solubility in water at 60° C

Molecule: C[C@H](O)C(=O)Nc1c(I)c(C(=O)NC(CO)CO)c(I)c(C(=O)NC(CO)CO)c1I [Compound A, L-5-α-Hydroxypropionylamino-2,4,6-triiodo-isophthalic acid di-(1,3-dihydroxyisopropylamide)]
- Solubility in water (in words) [1]: very readily soluble in water
- solubility [1, 10]: 890 mg/mL (≈ 1150 mM)
- solubility [1, 11]: 1040 mg/mL (≈ 1340 mM)
- solubility [1, 12]: 1150 mg/mL (≈ 1480 mM)
- Toxicity, LD50, i.ce. (mice [2]): 1500 mg I/kg
- Toxicity, LD50, i.p. (mice [2]): 20000 mg I/kg
- Toxicity, LD50, i.v. (mice [2]): 21800 mg I/kg
- Toxicity, LD50, i.ci. (rabbits): 250 mg I/kg
- Toxicity, LD50, i.ca. (rats): 6500 mg I/kg
- Viscosity of aqueous solution, 300 mg iodine, 20° C ([3]; 300 mg iodine, 20° C): 8.95 c.p.
- Viscosity of aqueous solution, 300 mg iodine, 37° C ([3]; 300 mg iodine, 37° C): 4.70 c.p.
- Viscosity of aqueous solution, 400 mg iodine, 20° C ([3]; 400 mg iodine, 20° C): 40.6 c.p.
- Viscosity of aqueous solution, 400 mg iodine, 37° C ([3]; 400 mg iodine, 37° C): 16.1 c.p.
- Appearance, 30 min. [4]: (1) (2)
- iodide ion concentration, 30 min. [4]: 0.3 mg I' per ml
- pH, 30 min. [4]: 7.29
- Appearance, 15 hrs. [4]: (1) (3)
- iodide ion concentration, 15 hrs. [4]: 1.8 mg I' per ml
- pH, 15 hrs. [4]: 5.15
- Appearance, initial [4]: (1) (2)
- iodide ion concentration, initial [4]: 0.15 mg I' per ml
- pH, initial [4]: 7.43
- Solubility in ethanol (in words) ([5]; ethanol): miscible with boiling ethanol
- Solubility in methanol ([5]; methanol): practically unlimited
- solubility ([5]; organic solvent or mixture, ethanol, room temperature): ~100 mg/mL (≈ 129 mM)
- Amount precipitated from aqueous solution on storage ([6]; 10 ml of solution containing 10 g, several days at 4° C): 2.3 g

Molecule: O=C(NC(CO)CO)c1c(I)c(NC(=O)C(O)CO)c(I)c(C(=O)NC(CO)CO)c1I (racemic) [DL-5-α,β-dihydroxypropionylamino-2,4,6-triiodo-isophtalic acid di-(1,3-dihydroxyisopropylamide)]
- Solubility in water (in words) [1]: good solubility in warm water
- Stability of supersaturated solutions ([6]; 37° C, water): stable for several hours at 37 °C

Molecule: O=S(=O)(CI)NC(CO)CO [Compound I, iodomethanesulfonic acid αγ-dihydroxyisopropylamide]
- Toxicity, LD50, i.ce. (mice [2]): 385 mg I/kg
- Toxicity, LD50, i.v. (mice [2]): 4700 mg I/kg
- Toxicity, LD50, i.ci. (rabbits): 89 mg I/kg

Molecule: CC(=O)Nc1c(I)c(C(=O)NCC(O)CO)c(I)c(C(=O)NCC(O)CO)c1I (stereo not shown) [Compound F, 5-acetylamino:2,4,6-triiodo-isophthalic acid di-(2,3-dihydroxypropylamide), reference compound]
- Solubility in water (in words) [1]: poor solubility
- solubility [1, 10]: 5 mg/mL (≈ 6.69 mM)
- solubility [1, 11]: 8 mg/mL (≈ 10.7 mM)
- solubility [1, 12]: 15 mg/mL (≈ 20.1 mM)

Molecule: CC(=O)Nc1c(I)c(C(=O)NC(CO)CO)c(I)c(C(=O)NC(CO)CO)c1I [E, 5-acetylamino-2,4,6-triiodo-isophthalic acid di-(1,3-dihydroxisopropylamide), reference compound]
- Solubility in water (in words) [1]: poor solubility
- solubility [1, 10]: 2 mg/mL (≈ 2.68 mM)
- solubility [1, 12]: 5 mg/mL (≈ 6.69 mM)

Molecule: CC(=O)Nc1c(I)c(C(=O)N[C@H]2C(O)O[C@H](CO)[C@@H](O)[C@@H]2O)c(I)c(N(C)C(C)=O)c1I (stereo partly shown) [Compound H, 3-acetylamino-5-N-methyl-acetylamino-2,4,6-triiodobenzoyl-glucosamine, reference compound]
- solubility [1, 10]: ~800 mg/mL (≈ 1010 mM)
- Toxicity, LD50, i.ce. (mice [2]): 1400 mg I/kg
- Toxicity, LD50, i.p. (mice [2]): 4800 mg I/kg
- Toxicity, LD50, i.v. (mice [2]): 10200 mg I/kg
- Toxicity, LD50, i.ci. (rabbits): 100 mg I/kg
- Appearance, 30 min. [4]: (3)
- iodide ion concentration, 30 min. [4]: 1.71 mg I' per ml
- pH, 30 min. [4]: 6.45
- Appearance, 15 hrs. [4]: (4)
- iodide ion concentration, 15 hrs. [4]: 40.60 mg I' per ml
- pH, 15 hrs. [4]: 2.65
- Appearance, initial [4]: (1)
- iodide ion concentration, initial [4]: 0.66 mg I' per ml
- pH, initial [4]: 6.54
- Solubility in water (in words, known compounds) [7]: very soluble in water
- i.v. LD50 in mice (F.L. Weitl, 170th Am. Chem. Soc. meeting) (mice [8]): 23800 mg/kg
- i.v. LD50 in mice (F.L. Weitl, 170th Am. Chem. Soc. meeting), as iodine (mice [8]): 11400 mg I per kg
- Toxicity (in words, known compound) [9]: relatively non-toxic

Molecule: CC(O)C(=O)Nc1c(I)c(C(=O)NC(CO)CO)c(I)c(C(=O)NC(CO)CO)c1I (racemic) [Compound B, dl-5-α-hydroxypropionylamino-2,4,6triiodo-isophthalic acid di-(1,3-dihydroxyisopropylamide)]
- solubility [1, 10]: 300 mg/mL (≈ 386 mM)
- solubility [1, 11]: 300 mg/mL (≈ 386 mM)
- solubility [1, 12]: 320 mg/mL (≈ 412 mM)

Molecule: CNC(=O)c1c(I)c(NC(=O)CCCCC(=O)Nc2c(I)c(C(=O)O)c(I)c(C(=O)NC)c2I)c(I)c(C(=O)O)c1I [Compound K, 5,5'-adipoyldiimino-bis-(2,4,6-triiodo-N-methyl-isophthalamic acid)]
- Toxicity, LD50, i.ce. (mice [2]): 280 mg I/kg
- Toxicity, LD50, i.v. (mice [2]): 5500 mg I/kg
- Toxicity, LD50, i.ci. (rabbits): 37 mg I/kg

Molecule: C[C@H](O)C(=O)Nc1c(I)c(C(=O)NCC(O)CO)c(I)c(C(=O)NCC(O)CO)c1I (mixture of isomers) [Compound C, L-5-α-hydroxypropionylamino-2,4,6-triiodo-isophthalic acid di-(DL-2,3-dihydroxypropyl-amide)]
- Solubility in water (in words) [1]: very easily soluble in water
- solubility [1, 10]: 157 mg/mL
- solubility [1, 11]: 210 mg/mL
- solubility [1, 12]: 400 mg/mL
- Solubility in ethanol (in words) ([5]; ethanol): somewhat less soluble in ethanol

Molecule: CC(O)C(=O)Nc1c(I)c(C(=O)NCC(O)CO)c(I)c(C(=O)NCC(O)CO)c1I (mixture of isomers) [Compound D, 5-DL-α-Hydroxypropionylamino-2,4,6-triiodo-isophthalic acid di-(DL-2,3-dihydroxypropylamide)]
- Solubility in water (in words) [1]: somewhat less soluble than Compound C
- Solubility in water at 20° C ([1]; 20° C): 14 g/100 ml
- Solubility in water at 40° C ([1]; 40° C): 20 g/100 ml
- Solubility in water at 60° C ([1]; 60° C): 34 g/100 ml
- solubility [1, 10]: 140 mg/mL
- solubility [1, 11]: 200 mg/mL
- solubility [1, 12]: 340 mg/mL

Molecule: 5-α-acetoxypropionylamino-2,4,6-triiodo-isophthalic acid di-(2,2-dimethyl-1,3-dioxolan-4-yl-methylamide)
- Solubility in water (in words) [1]: practically insoluble in water

Molecule: CC(=O)Nc1c(I)c(C(=O)N(C)CC(O)CO)c(I)c(C(=O)N(C)CC(O)CO)c1I (stereo not shown) [G, 5-acetylamino-2,4,6-triiodo-isophthalic acid di-(N-methyl-2,3-dihydroxypropylamide)]
- solubility [1, 10]: 550 mg/mL (≈ 710 mM)
- Toxicity, LD50, i.ce. (mice [2]): 820 mg I/kg
- Toxicity, LD50, i.v. (mice [2]): 15700 mg I/kg
- Toxicity, LD50, i.ci. (rabbits): 81 mg I/kg
